Source: patent publication US10660333B2, “Substituted 2-heterocyclylimidazolylcarboxamides as pesticides” (BAYER CROPSCIENCE AKTIENGESELLSCHAFT, priority 2016, dated 2020)

Test system: Myzus persicae
Assay: Myzus persicae - spray test (MYZUPE), comparison with prior art
Assay type: in vivo
Settings: Myzus persicae, 120 h, 4 g/ha (g of ai/ha), 5 dat, read-out: % efficacy
Description: Myzus persicae—Spray Test (MYZUPE)
(§1) To produce a suitable active ingredient formulation, 1 part by weight of active ingredient is dissolved with the specified parts by weight of solvent and made up to the desired concentration with water containing an emulsifier concentration of 1000 ppm. To produce further test concentrations, the formulation is diluted with emulsifier-containing water.
Discs of Chinese cabbage leaves (Brassica pekinensis) infested by all stages of the green peach aphid (Myzus persicae) are sprayed with an active ingredient formulation of the desired concentration.
(§2) After the desired period of time, the efficacy in % is determined. 100% means that all the aphids have been killed; 0% means that no aphids have been killed.

SMILES	Emax at 4 g/ha
Cc1nc(C(=O)Nc2cccnc2)c[nH]1 [WO 2011/009804 (Ex. 14), reference compound]	0%
CCOC(=O)c1cc(-c2ncc(C(=O)N(C)c3cccnc3)n2C)on1 [reference compound]	0%
Cc1ncc(C(=O)Nc2cccnc2)n1C [reference compound]	0%

Same assay, conditions: Myzus persicae, 120 h, 20 g/ha (g of ai/ha), 5 dat, read-out: % efficacy

SMILES	Emax at 20 g/ha
Cc1nc(C(=O)Nc2cccnc2)c[nH]1 [WO 2011/009804 (Ex. 14), reference compound]	0%
CCOC(=O)c1cc(-c2ncc(C(=O)N(C)c3cccnc3)n2C)on1 [reference compound]	0%
Cc1ncc(C(=O)Nc2cccnc2)n1C [reference compound]	0%

Same assay, conditions: Myzus persicae, 120 h, 100 g/ha (g of ai/ha), 5 dat, read-out: % efficacy

SMILES	Emax at 100 g/ha
Cc1nc(C(=O)Nc2cccnc2)c[nH]1 [WO 2011/009804 (Ex. 14), reference compound]	0%
CCOC(=O)c1cc(-c2ncc(C(=O)N(C)c3cccnc3)n2C)on1 [reference compound]	0%

Same assay, conditions: Myzus persicae, 120 h, 500 g/ha, 5 dat, read-out: % efficacy

SMILES	Emax at 500 g/ha
CCOC(=O)c1cc(-c2ncc(C(=O)N(C)c3cccnc3)n2C)on1 [reference compound]	0%

Same assay, conditions: Myzus persicae, 144 h, 4 g/ha, 6 dat, read-out: % efficacy

SMILES	Emax at 4 g/ha
CN(C(=O)c1cnc(-c2cc(-c3ccccc3)no2)n1C)c1cccnc1 [reference compound]	0%
O=C(Nc1cccnc1)c1c[nH]cn1 [WO 2011/009804 (Ex. 13), reference compound]	0%

Same assay, conditions: Myzus persicae, 144 h, 20 g/ha, 6 dat, read-out: % efficacy

SMILES	Emax at 20 g/ha
CN(C(=O)c1cnc(-c2cc(-c3ccccc3)no2)n1C)c1cccnc1 [reference compound]	0%
O=C(Nc1cccnc1)c1c[nH]cn1 [WO 2011/009804 (Ex. 13), reference compound]	0%

Same assay, conditions: Myzus persicae, 144 h, 100 g/ha, 6 dat, read-out: % efficacy

SMILES	Emax at 100 g/ha
O=C(Nc1cccnc1)c1c[nH]cn1 [WO 2011/009804 (Ex. 13), reference compound]	0%

Test system: Myzus persicae
Assay: Myzus persicae - oral test (MYZUPE O), comparison with prior art
Assay type: in vivo
Settings: Myzus persicae, po, 120 h, 0.8 ppm, 5 dat, read-out: % efficacy
Description: Myzus persicae—Oral Test (MYZUPE O)
To produce a suitable active ingredient formulation, 1 part by weight of active ingredient is dissolved with the specified parts by weight of solvent and made up to the desired concentration with water.
50 μl of the active ingredient formulation are transferred into microtitre plates and made up to a final volume of 200 μl with 150 μl of IPL41 insect medium (33%+15% sugar). Subsequently, the plates are sealed with parafilm, which a mixed population of green peach aphids (Myzus persicae) within a second microtitre plate is able to puncture and imbibe the solution.
as §2

SMILES	Emax at 0.8 ppm
O=C(Nc1cccnc1)c1c[nH]cn1 [WO 2011/009804 (Ex. 13), reference compound]	0%
Cc1nc(C(=O)Nc2cccnc2)c[nH]1 [WO 2011/009804 (Ex. 14), reference compound]	0%
CCOC(=O)c1cc(-c2ncc(C(=O)N(C)c3cccnc3)n2C)on1 [reference compound]	0%

Same assay, conditions: Myzus persicae, po, 120 h, 4 ppm, 5 dat, read-out: % efficacy

SMILES	Emax at 4 ppm
O=C(Nc1cccnc1)c1c[nH]cn1 [WO 2011/009804 (Ex. 13), reference compound]	0%
Cc1nc(C(=O)Nc2cccnc2)c[nH]1 [WO 2011/009804 (Ex. 14), reference compound]	0%
CCOC(=O)c1cc(-c2ncc(C(=O)N(C)c3cccnc3)n2C)on1 [reference compound]	0%

Test system: Myzus persicae
Assay: Myzus persicae - spray test (MYZUPE S), bell pepper plants
Assay type: in vivo
Settings: Myzus persicae, 144 h, 0.16 ppm, 6 dat, read-out: % efficacy
Description: Myzus persicae—Spray Test (MYZUPE S)
as §1, with “water. If the addition of ammonium salts or/and penetrants is required, these are each added in a concentration of 1000 ppm to the formulation solution.” for “water.”
Bell pepper plants (Capsicum annuum) severely infested with the green peach aphid (Myzus persicae) are treated by spraying with the active ingredient formulation in the desired concentration.
After the desired time, the kill in % is determined. 100% means that all the animals have been killed; 0% means that no animals have been killed.

SMILES	Emax at 0.16 ppm
CN(C(=O)c1cnc(-c2cc(-c3ccccc3)no2)n1C)c1cccnc1 [reference compound]	0%
Cc1ncc(C(=O)N(C)c2cccnc2)n1C [reference compound]	0%
CCc1ncc(C(=O)N(C)c2cccnc2)n1C [reference compound]	0%
CN(C(=O)c1cnc(C2CC2)n1C)c1cccnc1 [reference compound]	5%
Cc1ncc(C(=O)Nc2cccnc2)n1C [reference compound]	0%

Same assay, conditions: Myzus persicae, 144 h, 0.8 ppm, 6 dat, read-out: % efficacy

SMILES	Emax at 0.8 ppm
CN(C(=O)c1cnc(-c2cc(-c3ccccc3)no2)n1C)c1cccnc1 [reference compound]	0%
Cc1ncc(C(=O)Nc2cccnc2)n1C [reference compound]	30%

Test system: Myzus persicae
Assay: Myzus persicae - drench test (MYZUPE D), savoy cabbage
Assay type: in vivo
Settings: Myzus persicae, soil, 240 h, 0.16 ppm, 10 dat, read-out: % efficacy
Description: Myzus persicae—Drench Test (MYZUPE D)
To produce a suitable active ingredient formulation, 1 part by weight of active ingredient is mixed with the specified amounts of solvent and emulsifier, and the concentrate is diluted with water to the desired concentration, it being necessary to include the volume of soil which is drenched in the calculation. It should be ensured that a concentration of 40 ppm of emulsifier in the soil is not exceeded. To produce further test concentrations, water is used for dilution.
Savoy cabbage (Brassica oleracea) in pots with soil and infested by all stages of the green peach aphid (Myzus persicae) is watered with an active ingredient formulation of the desired concentration.
as §2

SMILES	Emax at 0.16 ppm
CN(C(=O)c1cnc(-c2cc(-c3ccccc3)no2)n1C)c1cccnc1 [reference compound]	0%
Cc1ncc(C(=O)N(C)c2cccnc2)n1C [reference compound]	30%
CCc1ncc(C(=O)N(C)c2cccnc2)n1C [reference compound]	0%
Cc1ncc(C(=O)Nc2cccnc2)n1C [reference compound]	0%

Same assay, conditions: Myzus persicae, soil, 240 h, 0.8 ppm, 10 dat, read-out: % efficacy

SMILES	Emax at 0.8 ppm
CN(C(=O)c1cnc(-c2cc(-c3ccccc3)no2)n1C)c1cccnc1 [reference compound]	0%
Cc1ncc(C(=O)Nc2cccnc2)n1C [reference compound]	0%

Test system: Aphis gossypii
Assay: Aphis gossypii - spray test (APHIGO S), cotton plants
Assay type: in vivo
Settings: 144 h, 0.16 ppm, 6 dat, read-out: % efficacy
Description: Aphis gossypii—Spray Test (APHIGO S)
as §1, with “water. If the addition of ammonium salts or/and penetrants is required, these are each added in a concentration of 1000 ppm to the formulation solution.” for “water.”
Cotton plants (Gossypium hirsutum) heavily infested by the cotton aphid (Aphis gossypii) are sprayed with an active ingredient formulation of the desired concentration.
After the desired time, the kill in % is determined. 100% means that all the aphids have been killed; 0% means that no aphids have been killed.

SMILES	Emax at 0.16 ppm
CN(C(=O)c1cnc(-c2cc(-c3ccccc3)no2)n1C)c1cccnc1 [reference compound]	0%
Cc1ncc(C(=O)N(C)c2cccnc2)n1C [reference compound]	0%
CCc1ncc(C(=O)N(C)c2cccnc2)n1C [reference compound]	0%
CN(C(=O)c1cnc(C2CC2)n1C)c1cccnc1 [reference compound]	10%
Cc1ncc(C(=O)Nc2cccnc2)n1C [reference compound]	0%

Same assay, conditions: 144 h, 0.8 ppm, 6 dat, read-out: % efficacy

SMILES	Emax at 0.8 ppm
CN(C(=O)c1cnc(-c2cc(-c3ccccc3)no2)n1C)c1cccnc1 [reference compound]	0%
Cc1ncc(C(=O)N(C)c2cccnc2)n1C [reference compound]	0%
CCc1ncc(C(=O)N(C)c2cccnc2)n1C [reference compound]	0%
CN(C(=O)c1cnc(C2CC2)n1C)c1cccnc1 [reference compound]	30%
Cc1ncc(C(=O)Nc2cccnc2)n1C [reference compound]	0%
